Each block holds one compound with its values, some of them ahead of it.
Experiments:
[1] = test system: SK-MEL-1 human melanoma xenografts; assay: Biodistribution in NSG mice bearing human SK-MEL-1 melanoma xenografts; assay type: in vivo, mouse; conditions: 1 h p.i.
Protocol: (§1) All animal experiments were conducted in according to the guidelines established by Canadian Council on Animal Care and approved by Animal Ethics Committee of the University of British Columbia. Male C57BL/6 J and immunodeficient NSG mice were obtained from an in-house breeding colony at the BC Cancer Research Centre. For tumor implantation, mice were anesthetized by inhalation with 2% isoflurane, 1 × 10^6 B16-F10 and 5 × 10^6 SK-MEL-1 cells were inoculated subcutaneously on the right dorsal flank of C57BL/6J and NSG mice, respectively. Mice were used for imaging or biodistribution studies when the tumors reached 6–8 mm in diameter.
(§2) μPET/μCT imaging and biodistribution experiments were performed on a μPET/μCT scanner (Inveon, Siemens) using previously published procedures. Briefly, tumor-bearing mice were injected with approximately 3.0–5.0 MBq (for imaging) or <1.5 MBq (for biodistribution) of radiolabeled peptides via tail vein under sedation (2% isoflurane inhalation). For [^18F]FDG imaging and biodistribution, mice underwent fasting overnight prior to the experiments. Imaging studies were performed in duplicate or triplicate. […] After injection, mice were allowed to recover and roam freely in their cages. At 1 or 2 h p.i., mice were anesthetized again and positioned in the scanner. A baseline CT scan was obtained for localization and attenuation correction, followed by a 10–15 min static μPET scan. For biodistribution studies, mice were euthanized by CO2 inhalation, blood was withdrawn promptly, and the tissues of interest were harvested, rinsed, and blotted dry. All tissues were weighed and the radioactivity of the collected samples was measured using a WIZARD 2480 gamma counter.

MC1R = target: T1, MC1R (Mus musculus, UniProt Q01727); assay: In vitro competition binding assay with [^125I]NDP-αMSH on B16-F10 cells; conditions: 0.1 nM [^125I]NDP-αMSH, 25 °C, 1 h, n = 3
T1 construct: endogenous in cells; host or cells: B16-F10 mouse melanoma cells
T1 sequence (Q01727 whole entry): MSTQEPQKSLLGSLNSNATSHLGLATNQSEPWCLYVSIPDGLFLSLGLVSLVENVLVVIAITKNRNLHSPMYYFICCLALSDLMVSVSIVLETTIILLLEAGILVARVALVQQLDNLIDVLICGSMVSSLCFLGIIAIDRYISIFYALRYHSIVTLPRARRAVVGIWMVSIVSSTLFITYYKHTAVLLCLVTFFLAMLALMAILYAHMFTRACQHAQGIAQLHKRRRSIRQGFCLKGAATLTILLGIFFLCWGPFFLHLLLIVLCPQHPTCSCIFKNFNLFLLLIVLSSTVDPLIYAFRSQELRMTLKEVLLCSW
Protocol: Receptor binding affinity of CCZ01096 was assessed using previously published procedures. Briefly, approximately 500,000 B16-F10 cells/well were seeded onto 24 well poly-D-lysine plates overnight. The cells were washed with PBS and the growth media was replaced by the reaction buffer described above. Increasing concentrations of non-radioactive CCZ01096 (0.5 pM to 5 μM) along with 0.1 nM of [^125I]NDP-αMSH were also added. The reaction mixture was incubated at 25 °C with moderate agitation for 1 h. Cells were washed with ice-cold PBS, harvested, and measured for radioactivity on a WIZARD 2480 gamma counter.

[2] = Biodistribution in NSG mice bearing human SK-MEL-1 melanoma xenografts; assay type: in vivo, mouse; conditions: male, NSG, mouse, SK-MEL-1 tumor, iv, total radioactivity, 1 h p.i., n = 4
Protocol: as §1, §2

[3] = NSG mice, SK-MEL-1 xenograft, unblocked, n = 5 ([^18F]FDG n = 4)

Adrenal glands uptake [1, 3]: 2.05±0.28 %ID/g
Blood uptake [1, 3]: 0.95±0.27 %ID/g
Bone uptake [1, 3]: 0.86 ± 0.35 %ID/g
Brain uptake [1, 3]: 9.54 ± 1.69 %ID/g
Fat uptake [1, 3]: 0.86±0.21 %ID/g
Heart uptake [1, 3]: 8.80 ± 4.42 %ID/g
Intestines uptake [1, 3]: 3.95 ± 0.16 %ID/g
Kidneys uptake [1, 3]: 3.01±0.28 %ID/g
Liver uptake [1, 3]: 1.48±0.14 %ID/g
Lungs uptake [1, 3]: 3.42±0.40 %ID/g
Muscle uptake [1, 3]: 1.75 ± 0.54 %ID/g
Pancreas uptake [1, 3]: 1.41±0.20 %ID/g
Seminal glands uptake [1, 3]: 4.63 ± 0.57 %ID/g
Spleen uptake [1, 3]: 3.59±0.68 %ID/g
Stomach uptake [1, 3]: 1.00±0.11 %ID/g
Testes uptake [1, 3]: 1.15±1.03 %ID/g
Thyroid uptake [1, 3]: 2.72±0.13 %ID/g
Tumor/Blood ratio [1, 3]: 7.64±2.06
Tumor/Bone ratio [1, 3]: 8.83±2.62
Tumor/Kidneys ratio [1, 3]: 2.30±0.04
Tumor/Muscle ratio [1, 3]: 4.22±1.30
SK-MEL-1 tumor uptake ([1]; NSG mice, SK-MEL-1 xenograft, tail vein, unblocked, gamma counter, n = 5 ([^18F]FDG n = 4)): 6.91 ± 0.66 %ID/g
SMILES: OC[C@H]1OC(O)[C@H]([18F])[C@@H](O)[C@@H]1O (stereo partly drawn) [[^18F]FDG, 2-[^18F]fluorodeoxyglucose]

Ki (MC1R): 0.51 ± 0.08 nM
SMILES: CCCC[C@H](NC(=O)CN1CCC(NC(=O)C(CCCCNC(=O)Cn2cc(C[N+](C)(C)C[B-](F)(F)F)nn2)NC(=O)Cn2cc(C[N+](C)(C)C[B-](F)(F)F)nn2)CC1)C(=O)N[C@H]1CC(=O)NCCCC[C@@H](C(N)=O)NC(=O)[C@H](Cc2c[nH]c3ccccc23)NC(=O)[C@H](CCCNC(=N)N)NC(=O)[C@@H](Cc2ccccc2)NC(=O)[C@H](Cc2c[nH]cn2)NC1=O (stereo partly drawn) [CCZ01096]

tissue uptake at 1 h ([2]; 5.9 pmol, without co-injection, total injected peptide mass 5.9 ± 0.90 pmol): 6.15 ± 0.22 %ID/g
tissue uptake at 1 h ([2]; co-injection of 20 pmol ^natGa-CCZ01048, total peptide mass 27.5 ± 0.6 pmol): 2.66 ± 0.22 %ID/g
tissue uptake at 1 h ([2]; co-injection of 50 pmol ^natGa-CCZ01048, total peptide mass 57.3 ± 1.0 pmol): 1.31 ± 0.13 %ID/g
tissue uptake at 1 h ([2]; co-injection of 100 pmol ^natGa-CCZ01048, total peptide mass 109 ± 1.0 pmol): 1.04 ± 0.17 %ID/g
SMILES: CCCC[C@H](NC(=O)CN1CCC(NC(=O)CN2CCN(CC(=O)O)CCN(CC(=O)O)CCN(CC(=O)O)CC2)CC1)C(=O)N[C@H]1CC(=O)NCCCC[C@@H](C(N)=O)NC(=O)[C@H](Cc2c[nH]c3ccccc23)NC(=O)[C@H](CCCNC(=N)N)NC(=O)[C@@H](Cc2ccccc2)NC(=O)[C@H](Cc2c[nH]cn2)NC1=O [[^68Ga]Ga-CCZ01048, metal not drawn]
Reduction of tumor uptake ([1]; co-injection of 20 pmol ^natGa-CCZ01048 vs none): 57%
Reduction of tumor uptake ([1]; co-injection of 50 pmol ^natGa-CCZ01048 vs none): 79%
Reduction of tumor uptake ([1]; co-injection of 100 pmol ^natGa-CCZ01048 vs none): 83%
